The text below walks through data of US11021481B2, “Substituted isoindolin-1-ones and 2,3-dihydro-1h-pyrrolo[3,4-c]pyridin-1-ones as HPK1 antagonists” (Nimbus Saturn, Inc., priority 2019, dated 2021).

In general, IC50 refers to the concentration that inhibits the measured activity by half.

Sequence of HPK1 (Q92918 whole entry): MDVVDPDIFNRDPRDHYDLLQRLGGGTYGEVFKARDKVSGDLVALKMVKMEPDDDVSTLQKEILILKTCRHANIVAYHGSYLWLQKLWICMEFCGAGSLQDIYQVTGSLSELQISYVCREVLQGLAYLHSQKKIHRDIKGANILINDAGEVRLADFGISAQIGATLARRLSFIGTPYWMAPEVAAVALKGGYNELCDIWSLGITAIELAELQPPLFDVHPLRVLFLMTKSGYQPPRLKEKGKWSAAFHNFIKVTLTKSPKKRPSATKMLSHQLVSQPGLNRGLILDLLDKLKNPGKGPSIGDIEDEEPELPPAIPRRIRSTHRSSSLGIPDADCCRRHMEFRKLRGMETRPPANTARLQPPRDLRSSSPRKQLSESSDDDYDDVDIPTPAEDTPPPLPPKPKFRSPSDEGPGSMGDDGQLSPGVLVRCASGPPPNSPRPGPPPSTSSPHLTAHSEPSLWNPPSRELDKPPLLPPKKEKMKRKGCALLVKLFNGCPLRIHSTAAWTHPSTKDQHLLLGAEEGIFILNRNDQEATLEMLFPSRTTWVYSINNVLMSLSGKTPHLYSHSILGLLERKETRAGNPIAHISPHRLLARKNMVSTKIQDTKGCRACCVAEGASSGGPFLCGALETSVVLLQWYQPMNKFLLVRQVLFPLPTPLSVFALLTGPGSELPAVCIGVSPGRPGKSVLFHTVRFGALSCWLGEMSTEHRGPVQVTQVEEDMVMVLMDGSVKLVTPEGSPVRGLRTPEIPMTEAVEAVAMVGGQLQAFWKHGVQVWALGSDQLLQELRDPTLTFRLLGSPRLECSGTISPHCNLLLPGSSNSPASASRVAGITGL

This test concerns the target HPK1 (Homo sapiens (Human), UniProt Q92918). The test is described as follows: HPK1 biochemical enzyme assay (microfluidic mobility shift assay). As to conditions: 1.5 nM HPK1, ATP 1 mM final, 30 min preincubation, 60 min at RT, Caliper EZ Reader; read-out: HPK1 1000UMATP caliper IC50. On the procedure: HPK1 biochemical enzyme assay: HPK1 enzyme inhibition was measured using a microfluidic mobility shift assay. […] Test compounds were titrated in ten point curves (top final assay concentration 3 μM), and preincubated with enzyme/substrate mix for 30 min prior to initiation of the reaction by addition of ATP (1 mM final concentration) and substrate (1 μM final concentration; Carna Biosciences) diluted in assay buffer supplemented by MgCl2 (final assay concentration of 5 mM). Following 60 min incubation at RT, the reaction was terminated by addition of 60 µl/well termination buffer (Carna Biosciences) and signal determination using aCaliper EZ Reader (Perkin Elmer, UK).
The compound numbers correspond to the compound numbers in Table 1.
`O=C1NCc2c(-c3cnc4cc(F)ccn34)ccc(Nc3cccc(O[C@H]4CCC[C@H]4O)n3)c21` (stereo in doubt) [I-354, 4-(7-fluoroimidazo [1,2-a]pyridin-3-yl)-7-((6-(((lR,2S)-2-hydroxycyclopentyl)oxy)pyri-din-2-yl)amino)isoin-dolin-1-one]: the half-inhibitory concentration (IC50) is over 1000 nM. In the case of `O=C1NCc2c(-c3cnc4c(F)cccn34)ncc(Nc3ccc(N4CC[C@@H](F)[C@H](O)C4)cn3)c21` [I-652, 7-((5-((3R,4R)-4-fluoro-3-hydroxypiperidin-1-yl)pyridin-2-yl)amino)-4-(8-fluoroimidazo [1,2-a]pyridin-3-yl)-2,3-dihydro-1H-pyrrolo[3,4-c]pyridin-1-one] it was under 100 nM; in that of `Cn1ccc2c(-c3ncc(Nc4ccc([C@H]5CCOC5)c(CN5CC[C@@H](O)C5)n4)c4c3CNC4=O)ccnc21` [I-810, 7-((6-(((R)-3-hydroxypyrroli-din-1-yl)methyl)-5-((R)-THF-3-yl)pyridin-2-yl)amino)-4-(1-methyl-1H-pyrrolo[2,3-b]pyridin-4-yl)-2,3-dihydro-1H-pyrrolo[3,4-c]pyridin-1-one], under 100 nM. With `O=C1NCc2c(-c3cnn4ccccc34)ncc(Nc3ccc(N4CCC(O)CC4)cn3)c21` [I-464, 7-[[5-(4-hydroxy-1-piperidyl)-2-pyridyl]amino] 4-pyrazolo[1,5-a]pyridin-3-yl-2,3-dihydropyrrolo [3,4-c]pyridin-l-one], the IC50 is under 100 nM. In the case of `O=C1NCc2c(-c3cnc4cc(F)ccn34)ccc(Nc3ccc([C@H]4CCOC4)c(CNCC(F)F)n3)c21` (single isomer, unassigned) [I-739] it was under 100 nM; in that of `COc1cccc2c(-c3ncc(Nc4ccc(N5CCN(C)CC5)cn4)c4c3CNC4=O)c[nH]c12` [I-7, 4-(7-methoxy-1H-indol-3-yl-)-7-[[5-(4-methylpiperazin-1-yl)-2-pyridyl]amino]-2,3-dihydropyrrolo [3,4-c]pyridin-1-one], 100 to 1000 nM; in that of `Cn1ccc2c(-c3ncc(Nc4ccc(N5CC[C@H](F)[C@@H](O)C5)cn4)c4c3CNC4=O)ccnc21` [I-417, 7-((5-((3S,4S)-4-fluoro-3-hydroxy-piperidin-1-yl)pyridin-2-yl)amino)-4-(1-methyl-1H-pyrrolo[2,3-b]pyridin-4-yl)-2,3-dihydro-1H-pyrrolo[3,4-c]pyridin-1-one], under 100 nM. In the case of `Cc1ccc2c(-c3ccc(Nc4ccc(N5CCN(C)CC5)cn4)c4c3CNC4=O)cnn2c1` [I-65, 7-[[5-(4-methylpiperazin-1-yl)-2-pyridyl]amino]-4-(6-methylpyrazolo [1,5-a]pyridin-3-yl)isoindolin-1-one] it was under 100 nM; in that of “4-(6- methylpyrazol o[1,5-a]pyridin-3- yl)-7-[[5- (morpholino- methyl)-2- pyridyl]amino] isoindolin-1-one [I-469]”, under 100 nM; in that of `C[C@H]1C[C@@H](O)CCN1c1ccc(Nc2ccc(-c3cnc4cnccn34)c3c2C(=O)NC3)nc1` [I-349, 7-((5-((2S,4S)-4-hydroxy-2-methylpiperidin-1-yl)pyridin-2-yl)amino)-4-(imidazo[1,2-a]pyrazin-3-yl)isoindolin-1-one], under 100 nM. The result for `Cn1nc(Nc2ccc(-c3cnc4cc(F)ccn34)c3c2C(=O)NC3)cc1C1(O)CCOCC1` [I-566, 4-(7-fluoroimidazo [1,2-a]pyridin-3-yl)-7-((5-(4-hydroxytetrah-ydro-2H-pyran-4-yl)-1-methyl-1H-pyrazol-3-yl)amino)isoin-dolin-1-one] reads under 100 nM; that for `O=C1NCc2c(-c3cnn4cc(F)ccc34)ccc(Nc3ccc(N4CCC(O)CC4)cn3)c21` [I-465, 4-(6-fluoropyrazolo [1,5-a]pyridin-3-yl)-7-[[5-(4-hydroxy-1-piperidyl)-2-pyridyl]amino] isoindolin-1-one], under 100 nM. With `CC(C)(O)[C@H]1CCCN(c2ccc(Nc3cnc(-c4cnc5c(F)cccn45)c4c3C(=O)NC4)nc2)C1` [I-243, 4-(8-fluoroimidazo [1,2-a]pyridin-3-yl)-7-[[5-[(3S)-3-(1-hydroxy-1-methyl-ethyl)-1-piperidyl]-2-pyridyl]-amino]-2,3-dihydropyrrolo [3,4-c]pyridin-1-one], the half-inhibitory concentration (IC50) was under 100 nM.

Consider `C[C@@H]1NC(=O)c2c(Nc3ccc(N4CCC(O)CC4)cn3)ccc(-c3cnc4ccccn34)c21` [I-316, (S)-7-((5-(4-hydroxypip-eridin-1-yl)pyridin-2-yl)amino)-4-(imidazo[1,2-a]pyridin-3-yl)-3-methylisoindo-lin-1-one], for which the IC50 was over 1000 nM.

For `Cc1ccc(Nc2cnc(-c3ccnc4c3ccn4C)c3c2C(=O)NC3)nc1N(C)C1CNC1` [I-667, 7-((6-(azetidin-3-yl-(methyl)amino)-5-methylpyridin-2-yl)amino)-4-(1-methyl-1H-pyrrolo[2.3-b]pyridin-4-yl)-2,3-dihydro-1H-pyrrolo[3,4-c]pyridin-1-one], the IC50 was over 1000 nM. The result for `Cc1ccn2c(-c3ccc(Nc4ccc([C@@H]5CCOC5)c(CN(C)C)n4)c4c3CNC4=O)cnc2c1F` [I-704, (S)-7-((6-((dimethylamino)-methyl)-5-(tetrahydrofuran-3-yl)pyridin-2-yl)amino)-4-(8-fluoro-7-methylimidazo [1,2-a]pyridin-3-yl)isoindolin-1-one] reads under 100 nM. Consider `Cc1nc2ccccn2c1-c1ccc(Nc2ccc(N3CCN(C)CC3)cn2)c2c1CNC2=O` [I-50, 4-(2-methylimidazo [1,2-a]pyridin-3-yl-)-7-[[5-(4-methylpiperazin-1-yl)-2-pyridyl]amino] isoindolin-1-1-one], for which the IC50 fell in the range of 100 to 1000 nM.

With `CN(C)C[C@@]1(O)CCCN(c2ccc(Nc3ccc(-c4cnc5cc(F)ccn45)c4c3C(=O)NC4)nc2)C1` [I-568, (S)-7-((5-(3-((dimethylamino)-methyl)-3-hydroxypiperidin-1-yl)pyridin-2-yl)amino)-4-(7-fluoroimidazo [1,2-a]pyridin-3-yl)isoindolin-1-one], the IC50 is under 100 nM. The result for `COc1ccn2c(-c3ccc(Nc4ccc(N5CCC(O)CC5)cn4)c4c3CNC4=O)cnc2c1` [I-164, 7-[[5-(4-hydroxy-1-piperidyl)-2-pyridyl]amino]-4-(7-methoxylmidazo[1,2-a]pyridin-3-yl)isoindolin-1-one] reads under 100 nM; that for `O=C1NCc2c(-c3cnc4cc(F)ccn34)ccc(Nc3ccc([C@H]4CCOC4)c(CN4CC[C@H](F)C4)n3)c21` (stereo in doubt) [I-735, 4-(7-fluoroimidazo [1,2-a]pyridin-3-yl)-7-((6-(((S)-3-fluoropyrrol-idin-1-yl)methyl)-5-((S)-tetrahydrofuran-3-yl)pyridin-2-yl)amino)isoin-dolin-1-one], under 100 nM; that for `CN(C)C(C)(C)[C@@H]1CN(c2ccc(Nc3ccc(-c4cnc5cnccn45)c4c3C(=O)NC4)nc2)CCO1` [I-617, (S)-7-((5-(2-(2-(dimethylami-no)propan-2-yl)morpho-lino)pyridin-2-yl)amino)-4-(imidazo[1,2-a]pyrazin-3-yl)isoindolin-1-one], under 100 nM. Consider `CN1CCN(CC2(O)CCN(c3ccc(Nc4ccc(-c5cnc6ccccn56)c5c4C(=O)NC5)nc3)CC2)CC1` [I-403, 7-((5-(4-hydroxy-4-((4-methylpiperazin-1-yl)methyl)pip-eridin-1-yl)pyridin-2-yl)amino)-4-(imidazo[1,2-a]pyridin-3-yl)isoindolin-1-one], for which the IC50 was under 100 nM.
